Laboratory results reported in PMC3953731 (FEBS Open Bio, 2014).
Substitutions are numbered along the chain they refer to. Names and notes keep the numbering of the source. Values joined by “and” are separate entries in the source; they are usually repeats but may differ in a detail not shown here. Equal values may be shown once.

T1: Ima5p (Saccharomyces cerevisiae, UniProt P40884)
T1 sequence (P40884 1-581): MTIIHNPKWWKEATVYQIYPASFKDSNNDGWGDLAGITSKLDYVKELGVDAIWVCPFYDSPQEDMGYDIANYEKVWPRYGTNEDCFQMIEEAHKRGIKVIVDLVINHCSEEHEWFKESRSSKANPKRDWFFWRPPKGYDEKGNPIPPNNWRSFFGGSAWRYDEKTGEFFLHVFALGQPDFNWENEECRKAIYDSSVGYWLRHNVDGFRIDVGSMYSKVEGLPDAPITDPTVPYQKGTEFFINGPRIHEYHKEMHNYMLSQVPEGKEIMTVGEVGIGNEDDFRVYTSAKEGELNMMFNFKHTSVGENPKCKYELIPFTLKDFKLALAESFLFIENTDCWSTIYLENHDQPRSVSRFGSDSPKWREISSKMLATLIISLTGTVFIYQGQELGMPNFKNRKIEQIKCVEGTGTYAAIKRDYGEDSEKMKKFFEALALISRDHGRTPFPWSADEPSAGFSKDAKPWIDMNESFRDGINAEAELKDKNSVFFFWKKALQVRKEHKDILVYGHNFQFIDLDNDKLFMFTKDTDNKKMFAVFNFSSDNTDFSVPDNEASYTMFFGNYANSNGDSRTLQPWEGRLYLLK

B1: Ima1p: isomaltase from S. cerevisiae encoded by IMA1/YGR287C, His-tagged, purified (protein, UniProt P53051 2-589, looked up)
Oligo-1,6-glucosidase IMA1: TISSAHPETEPKWWKEATFYQIYPASFKDSNDDGWGDMKGIASKLEYIKELGADAIWISPFYDSPQDDMGYDIANYEKVWPTYGTNEDCFALIEKTHKLGMKFITDLVINHCSSEHEWFKESRSSKTNPKRDWFFWRPPKGYDAEGKPIPPNNWKSYFGGSAWTFDEKTQEFYLRLFCSTQPDLNWENEDCRKAIYESAVGYWLDHGVDGFRIDVGSLYSKVVGLPDAPVVDKNSTWQSSDPYTLNGPRIHEFHQEMNQFIRNRVKDGREIMTVGEMQHASDETKRLYTSASRHELSELFNFSHTDVGTSPLFRYNLVPFELKDWKIALAELFRYINGTDCWSTIYLENHDQPRSITRFGDDSPKNRVISGKLLSVLLSALTGTLYVYQGQELGQINFKNWPVEKYEDVEIRNNYNAIKEEHGENSEEMKKFLEAIALISRDHARTPMQWSREEPNAGFSGPSAKPWFYLNDSFREGINVEDEIKDPNSVLNFWKEALKFRKAHKDITVYGYDFEFIDLDNKKLFSFTKKYNNKTLFAALNFSSDATDFKIPNDDSSFKLEFGNYPKKEVDASSRTLKPWEGRIYISE
modifications: His tag
B2: Ima2p: isomaltase from S. cerevisiae encoded by IMA2/YOL157C, His-tagged, purified (protein, UniProt Q08295 1-589, looked up)
Oligo-1,6-glucosidase IMA2: MTISSAHPETEPKWWKEATIYQIYPASFKDSNNDGWGDMKGIASKLEYIKELGADAIWISPFYDSPQDDMGYDIANYEKVWPTYGTNEDCFALIEKTHKLGMKFITDLVINHCSSEHEWFKESRSSKTNPKRDWFFWRPPKGYDAEGKPIPPNNWRSYFGGSAWTFDEKTQEFYLRLFCSTQPDLNWENEDCRKAIYESAVGYWLDHGVDGFRIDVGSLYSKVAGLPDAPVIDENSKWQPSDPFTMNGPRIHEFHQEMNKFIRNRVKDGREIMTVGEMQHATDETKRLYTSASRHELSELFNFSHTDVGTSPKFRQNLIPYELKDWKVALAELFRYVNGTDCWSTIYLENHDQPRSITRFGDDSPKNRVISGKLLSVLLVSLSGTLYVYQGQELGEINFKNWPIEKYEDVEVRNNYDAIKEEHGENSKEMKRFLEAIALISRDHARTPMQWSREEPNAGFSGPNAKPWFYLNESFREGINAEDESKDPNSVLNFWKEALRFRKAHKDITVYGYDFEFIDLDNKKLFSFTKKYDNKTLFAALNFSSDSIDFTIPNNSSSFKLEFGNYPRSEVDASSRTLKPWEGRIYISE
modifications: His tag
B3: Ima3p_L240P: Ima3p variant with L240P mutation (protein, UniProt P0CW40 1-589, looked up, variant L240P)
Oligo-1,6-glucosidase IMA3: B2 Oligo-1,6-glucosidase IMA2 with A54T, Q279R
B4: Ima3p: isomaltase from S. cerevisiae encoded by IMA3/YIL172C (identical IMA4), His-tagged, purified (protein, UniProt P0CW41 1-589, looked up)
Oligo-1,6-glucosidase IMA4: B2 Oligo-1,6-glucosidase IMA2 with A54T, P240L, Q279R
modifications: His tag
B5: Ima5p: isomaltase from S. cerevisiae encoded by IMA5/YJL216C, His-tagged, purified (protein, UniProt P40884 1-581, looked up)
Oligo-1,6-glucosidase IMA5: T1 sequence (P40884 1-581)
modifications: His tag

Legend:
Ima1p = Ima1p (Saccharomyces cerevisiae, UniProt P53051); test: Substrate specificity of purified isomaltase; type: biochemical; conditions: 100 mM substrate (pNPG 5 mM), pH 7, 30 °C; for Specific activities: citrate–potassium phosphate buffer
Ima2p = Ima2p (Saccharomyces cerevisiae, UniProt Q08295); test: Substrate specificity of purified isomaltase; type: biochemical; conditions: 100 mM substrate (pNPG 5 mM), pH 7, 30 °C; for Specific activities: citrate–potassium phosphate buffer
Ima3p = Ima3p (Saccharomyces cerevisiae, UniProt P0CW40); test: Substrate specificity of purified isomaltase; type: biochemical; conditions: 100 mM substrate (pNPG 5 mM), pH 7, 30 °C; for Specific activities: citrate–potassium phosphate buffer
Ima5p = biological target: T1, Ima5p; test: Substrate specificity of purified isomaltase; type: biochemical; conditions: 100 mM substrate (pNPG 5 mM), pH 7, 30 °C; for Specific activities: citrate–potassium phosphate buffer
[1] = Thermostability assay: time-dependent heat inactivation, half-life; type: biochemical, Saccharomyces cerevisiae; conditions: pNPG 5 mM, mean ± 2 SEM
[2] = Melting temperature by differential scanning fluorimetry; type: physicochemical, Saccharomyces cerevisiae; conditions: for Tm: mean ± 2 SEM; for decrease of Tm on increase by one pH unit (pH 8): pH 7 to pH 8

Sequence of Ima3p (P0CW40 whole entry): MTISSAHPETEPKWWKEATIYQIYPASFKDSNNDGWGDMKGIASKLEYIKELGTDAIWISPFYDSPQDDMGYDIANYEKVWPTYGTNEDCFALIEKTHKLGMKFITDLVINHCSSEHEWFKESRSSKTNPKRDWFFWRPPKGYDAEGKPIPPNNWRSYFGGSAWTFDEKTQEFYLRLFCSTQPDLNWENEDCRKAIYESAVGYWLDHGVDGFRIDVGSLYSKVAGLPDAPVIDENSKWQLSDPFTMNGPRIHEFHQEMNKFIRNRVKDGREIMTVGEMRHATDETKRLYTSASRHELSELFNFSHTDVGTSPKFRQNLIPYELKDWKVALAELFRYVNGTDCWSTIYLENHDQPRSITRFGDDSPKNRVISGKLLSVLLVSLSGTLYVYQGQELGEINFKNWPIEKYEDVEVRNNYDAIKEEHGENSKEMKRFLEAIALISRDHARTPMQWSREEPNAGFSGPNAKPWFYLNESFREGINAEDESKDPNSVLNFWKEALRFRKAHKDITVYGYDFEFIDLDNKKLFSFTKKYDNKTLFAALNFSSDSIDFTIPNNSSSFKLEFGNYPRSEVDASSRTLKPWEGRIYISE
Sequence of Ima1p (P53051 whole entry): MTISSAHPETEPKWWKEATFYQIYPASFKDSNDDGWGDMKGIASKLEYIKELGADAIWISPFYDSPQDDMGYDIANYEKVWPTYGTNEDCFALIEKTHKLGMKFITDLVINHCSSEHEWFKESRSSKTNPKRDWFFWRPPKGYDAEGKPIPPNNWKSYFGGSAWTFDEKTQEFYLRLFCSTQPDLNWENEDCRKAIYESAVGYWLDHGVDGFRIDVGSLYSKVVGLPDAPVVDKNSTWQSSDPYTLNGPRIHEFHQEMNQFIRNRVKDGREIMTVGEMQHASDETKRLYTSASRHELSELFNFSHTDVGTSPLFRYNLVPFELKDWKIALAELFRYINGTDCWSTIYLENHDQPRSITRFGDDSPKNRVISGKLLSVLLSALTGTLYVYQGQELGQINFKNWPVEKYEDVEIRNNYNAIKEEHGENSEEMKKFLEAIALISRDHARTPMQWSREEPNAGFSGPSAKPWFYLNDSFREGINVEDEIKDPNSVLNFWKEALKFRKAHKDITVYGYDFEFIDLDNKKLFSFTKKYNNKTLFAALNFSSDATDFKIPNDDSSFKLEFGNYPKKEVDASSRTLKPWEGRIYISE

Molecule | Specific activities (Ima1p) | relative activity, velocity on isomaltose set to 100 (Ima1p) | Specific activities (Ima2p) | relative activity, velocity on isomaltose set to 100 (Ima2p) | Specific activities (Ima3p) | Specific activities (Ima5p) | relative activity, velocity on isomaltose set to 100 (Ima5p) | t1/2 ([1]; 37 °C) | t1/2 ([1]; 40 °C) | Tm ([2]; pH 6, DSF) | Tm ([2]; pH 7, DSF) | Tm ([2]; pH 8, DSF) | other results
OC[C@H]1O[C@H](O[C@@H]2[C@@H](O)[C@H](O)[C@@H](CO)O[C@@H]2O)[C@H](O)[C@@H](O)[C@@H]1O [Kojibiose, O-α-D-Glucosyl-(1→2)-α-D-glucose] | 7.7 µmol/min/mg | 13% | 6.9 µmol/min/mg | 13% | 0 µmol/min/mg | 2.5 µmol/min/mg | 4% |  |  |  |  |  | 
OC[C@H]1O[C@H](O[C@H]2[C@H](O)[C@@H](O)[C@@H](O[C@H]3[C@H](O)[C@@H](O)C(O)O[C@@H]3CO)O[C@@H]2CO)[C@H](O)[C@@H](O)[C@@H]1O (stereo partly drawn) [Maltotriose, O-α-D-Glucosyl-(1→4)-α-D-glucosyl-(1→4)-D-glucose] | 3.5 µmol/min/mg | 6% | 3.4 µmol/min/mg | 6% | 0 µmol/min/mg | 3.4 µmol/min/mg | 5% |  |  |  |  |  | relative activity, velocity on isomaltose set to 100 (Ima1p; listed as maltotriose): approx. 5%; relative activity, velocity on isomaltose set to 100 (Ima2p; listed as maltotriose): approx. 5%; relative activity, velocity on isomaltose set to 100 (Ima5p; listed as maltotriose): approx. 5%
OC[C@H]1O[C@H](O[C@@H]2[C@@H](CO)OC(O)(CO)[C@H]2O)[C@H](O)[C@@H](O)[C@@H]1O (stereo partly drawn) [Maltulose, O-α-D-Glucosyl-(1→4)-D-fructose] | 0 µmol/min/mg |  | 0.53 µmol/min/mg | 1% | 0 µmol/min/mg | 0.36 µmol/min/mg | 1% |  |  |  |  |  | 
OC[C@H]1O[C@@](CO)(O[C@H]2O[C@H](CO)[C@@H](O)[C@H](O)[C@H]2O)[C@@H](O[C@H]2O[C@H](CO)[C@@H](O)[C@H](O)[C@H]2O)[C@@H]1O [Melezitose, O-α-D-Glucosyl-(1→3)-β-D-fructosyl-(2→1)-D-glucose] | 0 µmol/min/mg |  | 0 µmol/min/mg |  | 0 µmol/min/mg | 0 µmol/min/mg |  |  |  |  |  |  | 
OC[C@H]1O[C@H](O[C@@H]2[C@@H](O)[C@@H](O)O[C@H](CO)[C@H]2O)[C@H](O)[C@@H](O)[C@@H]1O [Nigerose, O-α-D-Glucosyl-(1→3)-α-D-glucose] | 6.5 µmol/min/mg | 11% | 6.8 µmol/min/mg | 13% | 2.5 µmol/min/mg | 4.2 µmol/min/mg | 6% |  |  |  |  |  | relative activity, velocity on isomaltose set to 100 (Ima3p): 35%
OC[C@H]1O[C@H](O[C@H]2O[C@H](CO)[C@@H](O)[C@H](O)[C@H]2O)[C@H](O)[C@@H](O)[C@@H]1O [Trehalose, O-α-D-Glucosyl-(1→1)-α-D-glucose] | 0 µmol/min/mg |  | 0 µmol/min/mg |  | 0 µmol/min/mg | 0 µmol/min/mg |  |  |  |  |  |  | 
O=C(CO)[C@@H](O[C@H]1O[C@H](CO)[C@@H](O)[C@H](O)[C@H]1O)[C@H](O)[C@H](O)CO [Turanose, O-α-D-Glucosyl-(1→3)-D-fructose] | 4.3 µmol/min/mg | 7% | 3.5 µmol/min/mg | 6% | 1.8 µmol/min/mg | 1.2 µmol/min/mg | 2% |  |  |  |  |  | relative activity, velocity on isomaltose set to 100 (Ima3p): 25%
B1 |  |  |  |  |  |  |  | 26.1 ± 1.7 min | 17.6 ± 1.7 min | 55.5 ± 0.6 °C | 46.6 ± 0.7 °C | 41.6 ± 0.2 °C | decrease of Tm on increase by one pH unit (pH 8) [2]: 5 °C
B2 |  |  |  |  |  |  |  | 27.4 ± 1.6 min | 18.5 ± 1.6 min | 55.1 ± 0.2 °C | 46.2 ± 0.8 °C | 33.2 ± 0.6 °C | t1/2 ([1]; 42 °C): 11.2 ± 0.7 min; decrease of Tm on increase by one pH unit (pH 8) [2]: 13 °C
B3 |  |  |  |  |  |  |  | 26.5 ± 2.2 min | 16.2 ± 1.8 min |  | 39.7 °C and 39.7 ± 0.4 °C |  | t1/2 ([1]; 42 °C): 8.5 ± 1.3 min; increase of Tm relative to Ima3p ([2]; pH 7): 1 °C
B4 |  |  |  |  |  |  |  | 23.2 ± 1.4 min | 7.6 ± 0.9 min | 47.0 ± 0.3 °C | 38.8 ± 0.5 °C | 29.9 ± 0.3 °C | t1/2 ([1]; 42 °C): 2.9 ± 0.5 min
B5 |  |  |  |  |  |  |  | 2.9 ± 0.4 min | 0.8 ± 0.1 min | 36.6 ± 0.4 °C |  | 35.7 ± 0.5 °C | 
